# Ends that are not written are not given here.
# How the values were obtained:
# [1] = tested on: HepG2 human liver cancer cells; experiment: LDH assay, HepG2 cells; assay type: cell-based; conditions: read-out: EC50 HepG2, Fig. 2B, 2 h, representative of N = 3
# [2] = tested on: 4T1 murine triple-negative breast cancer cells; experiment: LDH assay; assay type: cell-based
# [3] = tested on: CT2A murine glioblastoma cells; experiment: LDH assay, CT2A cells; assay type: cell-based; conditions: read-out: EC50 CT2A, Fig. 2A, 2 h, representative of N = 3
# [4] = tested on: NCI-60 human tumor cell lines (59 cancer cell lines); conditions: 48 h
# [5] = tested on: CT26 murine colon carcinoma cells; experiment: LDH assay, CT26 cells; assay type: cell-based; conditions: read-out: EC50 CT26, Fig. 2A, 2 h, representative of N = 3
# [6] = Half-life in murine serum; assay type: in vitro ADME; conditions: mouse
# [7] = tested on: MCA205 murine fibrosarcoma cells; experiment: LDH assay, MCA205 cells; assay type: cell-based; conditions: read-out: EC50 MCA205, Fig. 2A, 2 h, representative of N = 3
# [8] = Solubility in water; assay type: physicochemical
# [9] = tested on: human melanoma cell line LOX IMVI; experiment: NCI-60 screen, LOX IMVI; assay type: cell-based; conditions: 48 h, SRB
# [10] = tested on: U2OS human osteosarcoma cells; experiment: LDH assay, U2OS cells; assay type: cell-based; conditions: read-out: EC50 U2OS, Fig. 2B, 2 h, representative of N = 3
# [11] = tested on: HT-29 human colorectal cancer cells; experiment: LDH assay, HT-29 cells; assay type: cell-based; conditions: read-out: EC50 HT-29, Fig. 2B, 2 h, representative of N = 3
# [12] = tested on: Panc10.05 human pancreatic cancer cells; experiment: LDH assay, Panc10.05 cells; assay type: cell-based; conditions: read-out: EC50 Panc10.05, Fig. 2B, 2 h, representative of N = 3
# [13] = tested on: SUM149 cells; experiment: LDH assay, SUM149 cells; assay type: cell-based, human; conditions: read-out: EC50 SUM149, Fig. 2B, 2 h, representative of N = 3
# [14] = tested on: B16-F10 murine melanoma cells; experiment: LDH assay, B16-F10 cells; assay type: cell-based; conditions: read-out: EC50 B16-F10, Fig. 2A, 2 h, representative of N = 3
# [15] = tested on: CT26 tumors; experiment: Tumor growth, CT26 murine colorectal model; assay type: in vivo, BALB/c mice; conditions: intratumoral NF27
substance,measurement,setting,value
NGRKAKLNPASIVKKIIKKILKS-NH2 [NF27],EC50,[1],27.7 µM
same,EC50,"[2]; read-out: EC50 4T1, Fig. 2A, LDH assay, 2 h, representative of N = 3",12 µM
same,EC50,[3],14.7 µM
same,GI50,[4],< 10 µM
same,EC50,[5],4.4 µM
same,half-life,[6],29 min
same,EC50,[7],10.5 µM
same,solubility,[8]; water,≥ 40 mM
same,GI50,[9],26.3 µM
same,EC50,[10],11.5 µM
same,EC50,[11],24 µM
same,EC50,[12],21.3 µM
same,EC50,[13],6.6 µM
same,EC50,[14],10.9 µM
same,side effects in murine tumor models,[15],no observable side effects
NGRKAKKNAKKVKKIIKKIKKI-NH2 [NF22],oncolytic activity (LDH release),"[2]; initial screen, 4T1 cells",no detectable oncolytic activity
NGRKACLNPASIVKKIIKKILKI [NF11],solubility in water,[8]; lyophilized powder in water,formed a hard gel in water
